Series [1] is described as follows: Solubility in aqueous media. It counts as physicochemical.
The conditions of series [2]: at clinically effective concentrations; cited from earlier work.
Series [3] is described as follows: Blood glucose levels after insulin. The note with it: subcutaneous; 100 μg insulin/kg. It is filed as in vivo, rats. How it is done: Porcine insulin (Sigma Chemical Co., St. Louis, Mo., Catalog No. 1 3505, specific activity: approximately 24 IU/mg) was encapsulated in 2,5-diketo- 3,6-di (4-fumarylamino)piperazine, prepared using the same method in Example 1, by dissolving the diketopiperazine in sodium bicarbonate to form a solution containing 12.5 mg diketopiperazine/ml solution. This solution was then mixed with an equal volume of citric acid solution containing porcine insulin at a concentration of 0.172 mg insulin/ml citric acid to form a white precipitate. The product was collected by centrifuge and washed once with 200 ml of deionized water, and then dried overnight in the lyophilizer. The product was assayed by HPLC and found to contain 1.6% insulin by weight.
In total, three male rats weighing about 200 g each were each administered a dose of 100 μg insulin/kg body weight. The dose was given subcutaneously and also as insulin encapsulated in diketopiperazine. Control animals received only the diketopiperazine and the vehicle, phosphate buffered saline. Blood glucose levels were measured on samples taken from the tail vein at various times after treatment and measured as mg of glucose/dl blood using one drop of tail blood squeezed onto a Glucofilm™ strip.

Take `O=C(O)CCC(=O)NCCCCC1NC(=O)C(CCCCNC(=O)CCC(=O)O)NC1=O` (stereo not shown) [2,5-diketo-3,6-di(4-succinylaminobutyl)piperazine]: the values for the solubility entry in series [1] (acidic aqueous solutions) and in series [1] (weakly alkaline aqueous solution) were “quite insoluble in acidic aqueous solutions” and “readily soluble in weakly alkaline aqueous solution”, respectively.
For the compound `NC(=O)OCC(COC(N)=O)c1ccccc1` [felbamate], the “solubility in aqueous media” value in series [2] is recorded as “not soluble in aqueous media at clinically effective concentrations”.
As to “encapsulated insulin by subcutaneous injection: Porcine insulin (Sigma Chemical Co.), given subcutaneously”, the blood glucose level result in series [3] is on record as “A marked decrease in blood glucose level”.

The record behind these values is patent publication US5503852A, “Method for making self-assembling diketopiperazine drug delivery system” (Pharmaceutical Discovery Corporation, priority 1994, dated 1996).
